According to patent US11208412B2 (DAEGU-GYEONGBUK MEDICAL INNOVATION FOUNDATION, priority 2017, dated 2021):

Target: T1, recombinant LRRK2 kinase (Homo sapiens, UniProt Q5S007)
T1 construct: purchased Signal Chem, Richmond, BC, Canada
Experiment: LRRK2 kinase inhibition (Kinase-Glo luminescence)
Type: biochemical
Conditions: IC50 grade; 25 μmol/L ATP, LRRKtide, 30° C. 2 hours; read-out: Enzyme activity LRRK2
Protocol: Upon completion of the reaction, an equal amount of Kinase-Glo (Promega, Madison, Wis.) solution was added thereto, followed by reaction for 40 minutes. A detection solution was added thereto, followed by further reaction at room temperature for 30 minutes. Then, IC50 of kinase was calculated by measuring the amount of luciferase using a microplate ELISA reader (Bio-Tek).

T1 sequence (Q5S007 whole entry): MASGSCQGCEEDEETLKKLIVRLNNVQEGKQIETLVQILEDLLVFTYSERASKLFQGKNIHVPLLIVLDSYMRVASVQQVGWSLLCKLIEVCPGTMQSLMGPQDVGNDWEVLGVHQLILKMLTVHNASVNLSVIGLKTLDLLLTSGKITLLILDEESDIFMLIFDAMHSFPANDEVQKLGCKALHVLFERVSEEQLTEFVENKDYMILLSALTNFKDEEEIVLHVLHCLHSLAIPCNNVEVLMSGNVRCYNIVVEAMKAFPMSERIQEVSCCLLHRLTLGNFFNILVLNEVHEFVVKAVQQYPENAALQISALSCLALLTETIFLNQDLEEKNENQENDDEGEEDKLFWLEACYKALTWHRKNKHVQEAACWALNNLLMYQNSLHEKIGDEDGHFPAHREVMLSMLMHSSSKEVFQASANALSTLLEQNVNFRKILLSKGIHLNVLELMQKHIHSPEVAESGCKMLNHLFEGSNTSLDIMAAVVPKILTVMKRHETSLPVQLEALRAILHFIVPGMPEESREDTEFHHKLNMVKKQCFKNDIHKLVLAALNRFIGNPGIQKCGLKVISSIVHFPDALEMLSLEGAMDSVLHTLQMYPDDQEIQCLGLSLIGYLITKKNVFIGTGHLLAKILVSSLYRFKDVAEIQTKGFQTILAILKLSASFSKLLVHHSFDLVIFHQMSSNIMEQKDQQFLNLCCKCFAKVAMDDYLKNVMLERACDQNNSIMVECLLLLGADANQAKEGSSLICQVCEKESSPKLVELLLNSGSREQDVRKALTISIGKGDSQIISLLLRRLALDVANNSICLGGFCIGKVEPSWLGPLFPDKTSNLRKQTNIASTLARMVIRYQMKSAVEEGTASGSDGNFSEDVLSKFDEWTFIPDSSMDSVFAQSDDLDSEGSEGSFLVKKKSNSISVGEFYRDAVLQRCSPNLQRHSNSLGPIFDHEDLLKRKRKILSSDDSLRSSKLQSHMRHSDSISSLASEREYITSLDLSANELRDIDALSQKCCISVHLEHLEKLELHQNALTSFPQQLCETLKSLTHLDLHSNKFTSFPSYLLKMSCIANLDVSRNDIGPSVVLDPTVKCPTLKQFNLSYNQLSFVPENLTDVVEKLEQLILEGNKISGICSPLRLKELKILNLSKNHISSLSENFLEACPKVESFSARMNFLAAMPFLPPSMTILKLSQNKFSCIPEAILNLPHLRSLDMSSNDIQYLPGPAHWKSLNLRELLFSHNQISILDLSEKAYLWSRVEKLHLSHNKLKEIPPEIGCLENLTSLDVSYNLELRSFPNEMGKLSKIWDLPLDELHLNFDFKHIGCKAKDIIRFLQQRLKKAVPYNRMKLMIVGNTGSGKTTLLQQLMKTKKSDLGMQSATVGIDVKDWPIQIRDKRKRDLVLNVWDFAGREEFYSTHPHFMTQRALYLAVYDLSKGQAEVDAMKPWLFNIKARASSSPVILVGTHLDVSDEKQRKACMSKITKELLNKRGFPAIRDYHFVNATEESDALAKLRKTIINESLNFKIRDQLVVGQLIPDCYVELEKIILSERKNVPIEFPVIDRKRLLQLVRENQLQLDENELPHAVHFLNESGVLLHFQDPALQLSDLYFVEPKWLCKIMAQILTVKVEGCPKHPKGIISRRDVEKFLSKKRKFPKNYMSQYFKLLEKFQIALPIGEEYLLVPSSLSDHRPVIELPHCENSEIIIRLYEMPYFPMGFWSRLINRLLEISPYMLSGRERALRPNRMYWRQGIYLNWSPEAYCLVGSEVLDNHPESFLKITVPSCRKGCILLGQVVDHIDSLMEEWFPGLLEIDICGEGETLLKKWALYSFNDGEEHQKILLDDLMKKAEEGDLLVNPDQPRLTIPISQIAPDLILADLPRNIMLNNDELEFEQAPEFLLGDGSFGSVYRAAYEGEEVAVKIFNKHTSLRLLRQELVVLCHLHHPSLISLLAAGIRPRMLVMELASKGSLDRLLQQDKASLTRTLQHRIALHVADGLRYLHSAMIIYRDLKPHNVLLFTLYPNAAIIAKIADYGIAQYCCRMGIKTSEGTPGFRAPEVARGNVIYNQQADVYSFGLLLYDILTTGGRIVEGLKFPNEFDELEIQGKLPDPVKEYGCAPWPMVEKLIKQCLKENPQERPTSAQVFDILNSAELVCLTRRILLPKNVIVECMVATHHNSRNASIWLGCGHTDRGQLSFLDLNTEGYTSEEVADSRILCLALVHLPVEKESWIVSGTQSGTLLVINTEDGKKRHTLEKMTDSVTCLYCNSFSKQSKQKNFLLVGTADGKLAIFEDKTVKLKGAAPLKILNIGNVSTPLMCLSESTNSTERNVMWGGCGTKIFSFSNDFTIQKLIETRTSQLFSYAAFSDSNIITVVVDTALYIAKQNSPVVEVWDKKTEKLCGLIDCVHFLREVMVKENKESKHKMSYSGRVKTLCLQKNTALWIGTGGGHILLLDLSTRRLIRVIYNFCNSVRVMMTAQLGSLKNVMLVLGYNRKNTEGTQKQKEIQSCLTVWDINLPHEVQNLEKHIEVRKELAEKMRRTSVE

`COc1cc(C(=O)N2CCOCC2)ccc1Nc1nc(OC2CCOCC2)c2c(C#N)c[nH]c2n1` [Example 84, 2-((2-methoxy-4-(morpholine-4-carbonyl)phenyl)amino)-4-((tetrahydro-2H-pyran-4-yl)oxy)-7H-pyrrolo[2,3-d]pyrimidine-5-carbonitrile] was tested, and the IC50 was less than 0.01 µM.
`CNc1nc(Nc2cn(C(C)(C)C#N)nc2Cl)nc2[nH]cc(C#N)c12` [Example 71, 2-((3-chloro-1-(2-cyanopropane-2-yl)-1H-pyrazole-4-yl)amino)-4-(methylamino)-7H-pyrrolo[2,3-d]pyrimidine-5-carbonitrile] was tested, and the IC50 was less than 0.01 µM.
For `COc1cc(C(=O)N2CCOCC2)ccc1Nc1nc(O[C@H]2CCOC2)c2c(C#N)c[nH]c2n1` [Example 88, (S)-2-((2-methoxy-4-(morpholine-4-carbonyl)phenyl)amino)-4-((tetrahydrofuran-3-yl)oxy)-7H-pyrrolo[2,3-d]pyrimidine-5-carbonitrile], the IC50 was less than 0.01 µM.
With `COc1cc(C(=O)NC2CCN(C(C)C)CC2)c(F)cc1Nc1nc(NC2(C)CC2)c2c(C#N)c[nH]c2n1` [Example 82, 4-((5-cyano-4-((1-methylcyclopropyl)amino)-7H-pyrrolo[2,3-d]pyrimidine-2-yl)amino)-2-fluoro-N-(1-isopropylpiperidine-4-yl)-5-methoxybenzamide] the IC50 was 0.01 to 0.1 µM.
For `COc1cc(C(=O)N2CCOCC2)ccc1Nc1nc(OC(C)C)c2c(C#N)c[nH]c2n1` [Example 90, 4-isoprofoxy-2-((2-methoxy-4-(morpholine-4-carbonyl)phenyl)amino)-7H-pyrrolo[2,3-d]pyrimidine-5-carbonitrile], the IC50 was less than 0.01 µM.
`CNc1nc(Nc2ccc(C(=O)N3CCO[C@@H](C)C3)cc2OC)nc2[nH]cc(C#N)c12` [Example 21, (S)-2-((2-methoxy-4-(2-methylmorpholine-4-carbonyl)phenyl)amino)-4-(methylamino)-7H-pyrrolo[2,3-d]pyrimidine-5-carbonitrile] showed an IC50 of less than 0.01 µM.
Work on `CCNc1nc(Nc2ccc(C(=O)N3CCC(N4CCOCC4)CC3)cc2OC)nc2[nH]cc(C#N)c12` [Example 8, 4-(ethylamino)-2-((2-methoxy-4-(4-morpholinopiperidine-1-carbonyl)phenyl)amino)-7H-pyrrolo[2,3-d]pyrimidine-5-carbonitrile] yielded an IC50 of less than 0.01 µM.
`CCNc1nc(Nc2cc(F)c(C(=O)N3CCOCC3)cc2OC)nc2[nH]cc(C#N)c12` [Example 6, 4-(ethylamino)-2-((5-fluoro-2-methoxy-4-(morpholine-4-carbonyl)phenyl)amino)-7H-pyrrolo[2,3-d]pyrimidine-5-carbonitrile] showed an IC50 of less than 0.01 µM.
In the case of `CNc1nc(Nc2ccc(C(=O)NC3CCN(C)CC3)cc2OC)nc2[nH]cc(C#N)c12` [Example 55, 4-((5-cyano-4-(methylamino)-7H-pyrrolo[2,3-d]pyrimidine-2-yl)amino)-3-methoxy-N-(1-methylpiperidine-4-yl)benzamide], the IC50 is reported as less than 0.01 µM.
For `CCNc1nc(Nc2ccc(C(=O)N3CCO[C@@H](C)C3)cc2OC)nc2[nH]cc(C#N)c12` [Example 26, (S)-4-(ethylamino)-2-((2-methoxy-4-(2-methylmorpholine-4-carbonyl)phenyl)amino)-7H-pyrrolo[2,3-d]pyrimidine-5-carbonitrile], the IC50 was less than 0.01 µM.
`CCNc1nc(Nc2cc3c(cc2OC)CN(C)C3=O)nc2[nH]cc(C(F)(F)F)c12` [Example 134, 6-((4-(ethylamino)-5-(trifluoromethyl)-7H-pyrrolo[2,3-d]pyrimidine-2-yl)amino)-5-methoxy-2-methylisoindolin-1-one] gave an IC50 greater than 0.1 µM.
`CCNc1nc(Nc2ccc(C(=O)N3CCN(C)C[C@H]3C)cc2OC)nc2[nH]cc(C#N)c12` [Example 76, (R)-2-((4-(2,4-dimethylpiperazine-1-carbonyl)-2-methoxyphenyl)amino)-4-(ethylamino)-7H-pyrrolo[2,3-d]pyrimidine-5-carbonitrile] gave an IC50 of less than 0.01 µM.
`CNc1nc(Nc2cn(C(C)(C)C(N)=O)nc2C)nc2[nH]cc(C#N)c12` [Example 46, 2-(4-((5-cyano-4-(methylamino)-7H-pyrrolo[2,3-d]pyrimidine-2-yl)amino)-3-methyl-1H-pyrazole-1-yl)-2-methylpropaneamide] was tested, and the IC50 was less than 0.01 µM.
